Assay results from paper PMC8522752 (Antimicrobial Agents and Chemotherapy, 2021).
Like-named read-outs stand apart in the source and are kept apart here.

How the values were obtained:
[1] = tested on: BHK-21 cells; conditions: hamster
[2] = in vitro; conditions: African green monkey
[3] = tested on: West Nile virus Kern 515, WNo2; experiment: microbe, parasite or virus in culture; type: cell-based; conditions: West Nile Kern 515, WNo2, Huh-7, VYR assay, read-out: EC90 (reduce virus yield by 1 log10) (converted)
[4] = tested on: HCV; experiment: Antiviral specificity panel, HCV in Huh-7; type: cell-based, hepatitis C virus
[5] = in vitro; conditions: dog
[6] = tested on: Usutu virus TC-508; experiment: microbe, parasite or virus in culture; type: cell-based; conditions: Usutu TC-508, Huh-7, VYR assay, read-out: EC90 (reduce virus yield by 1 log10) (converted)
[7] = tested on: Influenza A and B; experiment: Antiviral specificity panel, Influenza A and B in MDCK; type: cell-based; conditions: Influenza A virus, Influenza A and B (RNA), read-out: EC50 (inhibit viral replication 50%)
[8] = Cytotoxicity in uninfected BHK-21 cells (MTT, DENV2 study); type: cell-based; conditions: hamster, BHK-21 without virus, Dengue-2 clinical isolate study, bound = highest concentration tested
[9] = tested on: Powassan virus Spooner; experiment: microbe, parasite or virus in culture; type: cell-based; conditions: BHK-21, read-out: EC50 (inhibition of virus-induced CPE)
[10] = tested on: Usutu virus TC-508; experiment: Neutral red CPE inhibition assay, Usutu TC-508 in Huh-7; type: cell-based; conditions: Huh-7, read-out: EC50 (inhibition of virus-induced CPE)
[11] = tested on: flaviviruses; experiment: microbe, parasite or virus in culture
[12] = tested on: Powassan virus LB; experiment: microbe, parasite or virus in culture; type: cell-based; conditions: BHK-21, read-out: EC90 (reduce virus yield by 1 log10) (converted)
[13] = tested on: Zika virus MR766; experiment: Neutral red CPE inhibition assay, Zika MR766 in Huh-7; type: cell-based; conditions: Huh-7, read-out: EC50 (inhibition of virus-induced CPE)
[14] = in vitro; conditions: human, hamster
[15] = tested on: Dengue-2 New Guinea C; experiment: microbe, parasite or virus in culture; type: cell-based; conditions: Huh-7, VYR assay, read-out: EC90 (reduce virus yield by 1 log10) (converted)
[16] = tested on: flaviviruses
[17] = tested on: Dengue-2 New Guinea C; experiment: Neutral red CPE inhibition assay, Dengue-2 New Guinea C in Huh-7; type: cell-based; conditions: Dengue virus, Huh-7, neutral red assay, read-out: EC50 (inhibition of virus-induced CPE)
[18] = tested on: Rift Valley fever virus; experiment: microbe, parasite or virus in culture; type: cell-based; conditions: Huh-7, read-out: EC50 (inhibit viral replication 50%)
[19] = tested on: Dengue-3 H87; experiment: Neutral red CPE inhibition assay, Dengue-3 H87 in Huh-7; type: cell-based; conditions: Dengue virus; Dengue-3 H87, Huh-7, neutral red assay; read-out: EC50 (inhibition of virus-induced CPE)
[20] = tested on: Eastern equine encephalitis virus; experiment: microbe, parasite or virus in culture; type: cell-based; conditions: Huh-7, read-out: EC50 (inhibit viral replication 50%)
[21] = tested on: DENV2 (clinical isolate); experiment: DENV2 clinical isolate CPE inhibition in BHK-21 cells (MTT); type: cell-based, dengue virus
[22] = tested on: Powassan virus LB; experiment: microbe, parasite or virus in culture; type: cell-based; conditions: BHK-21, read-out: EC50 (inhibition of virus-induced CPE)
[23] = tested on: Yellow Fever virus YFV 17D; experiment: microbe, parasite or virus in culture; type: cell-based; conditions: Huh-7, read-out: EC50 (inhibition of virus-induced CPE)
[24] = Plasma pharmacokinetics in cynomolgus monkeys after oral AT-752; conditions: monkeys, oral AT-752 300 mg/kg
[25] = tested on: Rhinovirus; experiment: Antiviral specificity panel, Rhinovirus in H1-HeLa; type: cell-based; conditions: Enterovirus, Rhinovirus (RNA), read-out: EC50 (inhibit viral replication 50%)
[26] = tested on: West Nile virus Kern 515, WNo2; experiment: Neutral red CPE inhibition assay, West Nile virus in Huh-7; type: cell-based; conditions: West Nile Kern 515, WNo2, Huh-7, neutral red assay, read-out: EC50 (inhibition of virus-induced CPE)
[27] = tested on: HIV-1; experiment: Antiviral specificity panel, HIV-1 in CEM-SS; type: cell-based; conditions: Human immunodeficiency virus 1, HIV-1 (RNA), read-out: EC50 (inhibit viral replication 50%)
[28] = tested on: DENV2 (clinical isolate); experiment: DENV2 clinical isolate CPE inhibition in human PBMCs (MTT); type: cell-based, dengue virus
[29] = tested on: Japanese encephalitis virus SA-14; experiment: Neutral red CPE inhibition assay, Japanese encephalitis SA-14 in Huh-7; type: cell-based; conditions: Japanese encephalitis SA-14, Huh-7, neutral red assay, read-out: EC50 (inhibition of virus-induced CPE)
[30] = tested on: Powassan virus Spooner; experiment: microbe, parasite or virus in culture; type: cell-based; conditions: BHK-21, read-out: EC90 (reduce virus yield by 1 log10) (converted)
[31] = tested on: Yellow Fever virus YFV 17D; experiment: microbe, parasite or virus in culture; type: cell-based; conditions: Huh-7, read-out: EC90 (reduce virus yield by 1 log10) (converted)
[32] = Plasma pharmacokinetics in Sprague Dawley rats after oral AT-752; conditions: rat, oral AT-752 300 mg/kg, earliest time point measured
[33] = tested on: Herpes simplex-1; experiment: Antiviral specificity panel, Herpes simplex-1 in Vero; type: cell-based; conditions: Herpes simplex-1 (DNA), read-out: EC50 (inhibit viral replication 50%)
[34] = tested on: Respiratory syncytial virus; experiment: Antiviral specificity panel, respiratory syncytial virus in HEp2; type: cell-based; conditions: human respiratory syncytial virus, HEp-2, Respiratory syncytial virus (RNA), read-out: EC50 (inhibit viral replication 50%)
[35] = tested on: Adenovirus; experiment: Antiviral specificity panel, Adenovirus in Vero; type: cell-based; conditions: unidentified adenovirus, Adenovirus (DNA), read-out: EC50 (inhibit viral replication 50%)
[36] = Cardiomyocyte assay (CellTiter Glo); type: cell-based; conditions: human iPS cardiomyocytes
[37] = mice, 1,000 mg/kg loading then 500 mg/kg BID for 3 days, oral
[38] = in vivo; conditions: male, CD-1, mouse, po, 420 mg/kg
[39] = tested on: Chikungunya virus; experiment: Antiviral specificity panel, Chikungunya in Huh-7; type: cell-based; conditions: Chikungunya (RNA), read-out: EC50 (inhibit viral replication 50%)
[40] = in vivo; conditions: male, cynomolgus, cynomolgus monkey, po, 300 mg/kg

Structure (SMILES): CNc1nc(N)nc2c1ncn2[C@@H]1O[C@H](CO[P@](=O)(N[C@@H](C)C(=O)OC(C)C)Oc2ccccc2)[C@@H](O)[C@@]1(C)F [AT-281]
- CC50 [1]: > 170000 nM
- CC50 [2]: > 100000 nM
- EC90 [3]: 430 nM
- selectivity toward HCV [4]: > 2,000
- EC50 ([4]; Hepatitis C virus, HCV (RNA), read-out: EC50 (inhibit viral replication 50%)): 50 nM
- CC50 [5]: > 100000 nM
- EC90 [6]: 720 nM
- EC50 [7]: > 100000 nM
- CC50 at 3 days [8]: > 170000 nM
- EC50 [9]: 290 nM
- EC50 [10]: 190 nM
- EC50 ([11]; Dengue virus, DENV2 / DENV3, read-out: EC50 values, all other flaviviruses tested): 190 to 1410 nM
- EC50 ([11]; Orthoflavivirus, in Homo sapiens, 144 h, read-out: EC50 of the virus-induced cytopathic effect (CPE), range over Table 1): 210 to 1410 nM
- EC90 [12]: 2600 nM
- EC50 [13]: 640 nM
- CC50 [14]: 85000 to 170000 nM
- EC90 [15]: 640 nM
- SI (CC50/EC50) [16]: > 210
- cytotoxicity [16]: Little to no cytotoxicity
- EC50 [17]: 480 nM
- EC50 [18]: > 100000 nM
- EC50 [19]: 770 nM
- EC50 [20]: 10200 nM
- EC50 ([21]; Dengue virus, DENV2, BHK-21, read-out: EC50 (inhibition of virus-induced CPE), Dengue-2 clinical isolate, BHK-21): 630 nM
- EC50 ([21]; read-out: EC50 (inhibition of virus-induced CPE), Dengue-2 clinical isolate, BHK-21): 1100 nM
- EC50 [22]: 640 nM
- EC50 [23]: 310 nM
- time present in plasma [24]: more than 4 h
- EC50 [25]: > 100000 nM
- EC50 [26]: 1410 nM
- EC50 [27]: > 100000 nM
- EC50 ([28]; Dengue virus, DENV2, PBMC, read-out: EC50 (inhibition of virus-induced CPE), Dengue-2 clinical isolate, human PBMC): 600 nM
- EC50 ([28]; read-out: EC50 (inhibition of virus-induced CPE), Dengue-2 clinical isolate, human PBMC): 800 nM
- EC50 [29]: 210 nM
- EC90 [30]: 740 nM
- EC90 [31]: 260 nM
- plasma concentration at 1 h [32]: below the limit of quantitation
- EC50 [33]: > 100000 nM
- EC50 [34]: > 100000 nM
- EC50 [35]: > 100000 nM
- CC50 at 3 days [36]: > 100000 nM
- tolerability (adverse clinical signs) [37]: well tolerated
- AUC(0-t) [38]: 4.2 ± 0.5 µM·h
- Cmax [38]: 2.6 ± 0.3 µM
- Tmax [38]: 48 ± 18 min
- EC50 [39]: 54200 nM
- AUC(0-t) [40]: 9.5 ± 3.7 µM·h
- Cmax [40]: 3.7 ± 1.5 µM
- Tmax [40]: 60 min
